The results in this text go back to patent publication US5025011A, “Fused pyridines active on the cardiovascular system” (SIMES, Societa Italiana Medicinali e Sintetici S.p.A., priority 1988, dated 1991).

Molecules are shown by their SMILES. pIC50, pKi: −log10 of the molar value.

As usually defined, the pIC50 is the IC50 on a negative log10 scale, so that one unit is a factor of ten. In general, pKi refers to the Ki on a negative log10 scale, so that one unit is a factor of ten. A lower pKi goes with a large Ki.

The test system of one test is rabbit mesenteric artery. Briefly: Calcium antagonist activity: antagonizing the effect of Ca++ on preparations of rabbit mesenteric artery in Krebs depolarizer. It is filed as cell-based. The settings on record: Oryctolagus cuniculus, Ca++ submaximal concentration 3 mM. Here is the method: Calcium antagonist activity of the compounds of formula I has been tested as capability of antagonizing the effect of Ca^++ submaximal concentrations (3 mM) on preparations of rabbit mesenteric artery in Krebs depolarizer, prepared according to Towart "J. Cardiovasc. Pharmacol." 4, 895, (1982).

Test [1] deals with T1, mouse lung beta2 receptors (Mus musculus, UniProt P18762).
T1 construct: beta2 lung receptors in mouse; from tissue; host or cells: mouse lung
In words: beta-blocking activity: binding test towards beta2 lung receptors in mouse. An excerpt: (§1) Moreover the beta-blocking activity has been tested with i binding tests both towards beta1 heart receptors and beta2 lung receptors in mouse according to methods described in J. Biol. Chem., 253, 5090, (1978) and Br. J. Pharmacol., 68, 57, (1980).

For test [2], the target named is T2, mouse heart beta1 receptors (Mus musculus, UniProt P34971).
T2 construct: beta1 heart receptors; from tissue; host or cells: mouse heart
In words: beta-blocking activity: binding test towards beta1 heart receptors in mouse.
Description: as §1

T1 sequence (P18762 whole entry): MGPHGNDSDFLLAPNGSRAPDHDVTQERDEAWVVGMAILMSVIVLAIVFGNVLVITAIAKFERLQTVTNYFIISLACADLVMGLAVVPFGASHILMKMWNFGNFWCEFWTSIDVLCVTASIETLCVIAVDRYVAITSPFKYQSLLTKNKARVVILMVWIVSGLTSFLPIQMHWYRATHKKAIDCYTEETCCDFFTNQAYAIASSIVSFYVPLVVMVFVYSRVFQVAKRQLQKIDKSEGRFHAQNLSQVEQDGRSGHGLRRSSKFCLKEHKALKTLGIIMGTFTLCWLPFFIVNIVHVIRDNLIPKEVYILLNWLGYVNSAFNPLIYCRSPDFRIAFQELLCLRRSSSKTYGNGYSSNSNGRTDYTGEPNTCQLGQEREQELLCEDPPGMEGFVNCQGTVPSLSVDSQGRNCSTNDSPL
T2 sequence (P34971 whole entry): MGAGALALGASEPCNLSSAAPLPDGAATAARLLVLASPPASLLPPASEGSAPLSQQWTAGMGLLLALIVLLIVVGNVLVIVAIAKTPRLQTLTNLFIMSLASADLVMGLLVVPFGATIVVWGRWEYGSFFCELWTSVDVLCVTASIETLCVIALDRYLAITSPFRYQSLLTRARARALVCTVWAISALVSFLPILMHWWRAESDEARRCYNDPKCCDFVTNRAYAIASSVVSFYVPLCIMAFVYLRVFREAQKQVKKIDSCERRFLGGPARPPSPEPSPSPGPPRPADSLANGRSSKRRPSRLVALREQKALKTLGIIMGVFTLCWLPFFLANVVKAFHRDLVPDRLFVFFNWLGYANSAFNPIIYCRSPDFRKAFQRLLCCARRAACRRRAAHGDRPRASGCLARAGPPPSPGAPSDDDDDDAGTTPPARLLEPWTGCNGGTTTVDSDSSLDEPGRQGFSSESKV

Take `CCOC(=O)C1=C(C)Nc2cnn(CCNCC(O)COc3ccccc3OC)c(=O)c2C1c1cccc([N+](=O)[O-])c1` (stereo not drawn) [Compound A, Ethyl 2-methyl-4-(3-nitrophenyl)-5-oxo-6-(2-(2-hydroxy-3-(2-methoxyphenoxy)-propylamino)-ethyl)-1,4,5,6-tetrahydro-pyrido(2,3-d)pyridaxine-3-carboxylate]: the pIC50 in the test with rabbit mesenteric artery is 6.62. Moreover, the values for the pKi in test [1] and in test [2] were 6.54 and 6.46, respectively.
Taken in the same sequence, the figures for `CCOC(=O)C1=C(C)Nc2cnn(CC(C)(C)NCC(O)COc3ccccc3OC)c(=O)c2C1c1cccc([N+](=O)[O-])c1` (stereo not drawn) [Compound B] were 6.11, 7.15 and 6.85.
